Measurements as given in patent US8344153B2, “Inhibitors of phosphatidylinositol 3-kinase” (Vertex Pharmaceuticals Incorporated, priority 2009, dated 2013).

Target: PI3K-γ (Homo sapiens, UniProt P48736)
Assay: PI3K Inhibition Assay (33P-ATP, PI(4,5)P2 substrate, filter plate scintillation counting)
Type: biochemical
Conditions: competitive tight binding Ki fit; 3 μM ATP, 30 μM PI(4,5)P2, 2 nM final enzyme, 30 min at 25° C.; read-out: Ki for the inhibition of PI3Ky
Description: One test well also contained 1.5 μL of DMSO with no compound. […] To initiate the reaction, 50 μL of ATP Mix [20 mM MgCl2, 6 μM ATP (100 μCi/μmole ^33P-ATP)] was added each well, followed by incubating the wells for 30 min. at 25° C. Final concentrations in each well were 50 mM HEPES 7.5, 10 mM MgCl2, 25 mM NaCl, 5 mM DTT, 0.1 mg/mL BSA, 30 μM PI(4,5)P2, 3 μM ATP, and the PI3K isoform of interest (see Table 3). Final compound concentrations in each well ranged from 10 μM to 1 nM.
After incubation, the reactions in each well were quenched by addition of 50 μL of stop solution [30% TCA/Water, 10 mM ATP]. […] 50 μL of scintillation fluid was added to each well and the plate read on a Perkin-Elmer TopCount™ NXT liquid scintillation counter to obtain ^33P-counts representing inhibition values.

PI3K-γ, sequence (P48736 whole entry, species assumed): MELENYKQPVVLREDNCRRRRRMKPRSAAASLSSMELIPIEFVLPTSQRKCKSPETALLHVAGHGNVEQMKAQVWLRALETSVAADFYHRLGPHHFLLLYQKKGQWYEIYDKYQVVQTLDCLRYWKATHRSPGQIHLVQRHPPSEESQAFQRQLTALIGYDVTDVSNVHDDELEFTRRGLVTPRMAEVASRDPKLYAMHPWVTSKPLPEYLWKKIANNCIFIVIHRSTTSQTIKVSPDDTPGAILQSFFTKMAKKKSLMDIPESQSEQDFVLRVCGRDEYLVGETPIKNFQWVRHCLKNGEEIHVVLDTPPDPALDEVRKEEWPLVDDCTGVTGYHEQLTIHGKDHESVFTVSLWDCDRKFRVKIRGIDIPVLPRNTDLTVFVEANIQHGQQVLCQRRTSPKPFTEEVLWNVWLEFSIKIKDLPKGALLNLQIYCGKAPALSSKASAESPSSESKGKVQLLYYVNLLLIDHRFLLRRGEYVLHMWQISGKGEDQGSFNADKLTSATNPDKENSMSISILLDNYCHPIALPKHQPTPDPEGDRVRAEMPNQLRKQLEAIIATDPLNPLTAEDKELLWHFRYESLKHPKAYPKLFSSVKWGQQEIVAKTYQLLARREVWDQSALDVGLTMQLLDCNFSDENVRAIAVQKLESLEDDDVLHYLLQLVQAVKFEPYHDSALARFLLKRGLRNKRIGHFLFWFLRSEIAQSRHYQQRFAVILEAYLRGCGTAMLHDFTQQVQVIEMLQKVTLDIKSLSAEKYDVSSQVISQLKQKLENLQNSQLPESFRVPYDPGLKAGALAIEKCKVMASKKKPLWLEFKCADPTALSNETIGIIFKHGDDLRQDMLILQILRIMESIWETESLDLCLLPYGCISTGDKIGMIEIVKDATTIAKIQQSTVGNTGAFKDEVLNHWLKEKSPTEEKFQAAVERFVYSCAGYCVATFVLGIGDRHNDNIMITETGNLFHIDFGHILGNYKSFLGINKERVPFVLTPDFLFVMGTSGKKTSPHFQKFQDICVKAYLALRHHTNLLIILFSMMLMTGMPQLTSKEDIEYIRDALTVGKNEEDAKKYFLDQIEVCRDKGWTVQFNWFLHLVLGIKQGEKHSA

Ki: < 50 nM
SMILES: CCOCCNC(=O)Nc1nc(C)c(C#Cc2ccncc2)s1 [Compound 26]
